In patent US7763585B2, “Methods for inhibiting tumor cell proliferation” (priority 2003, dated 2010):
pIC50: −log10 of the molar value.

Experiments:
[1] = target: T1, Stat3:Stat3 (Mus musculus, UniProt P42227); assay: EMSA, disruption of Stat3:Stat3 DNA-binding activity in vitro (hSIE probe); assay type: biochemical; conditions: for Level of DNA-binding activity of Stat3 (EMSA): EGF-stimulated fibroblast nuclear extracts, 30 min preincubation, FIG. 1A; for pIC50: nuclear extracts pre-incubated 30 min at room temperature, read-out: IC50 for disruption of STAT DNA-binding activity in vitro, Stat3:Stat3
T1 construct: endogenous in cells; host or cells: EGF-stimulated fibroblasts (nuclear extract)
Description: (§1) FIGS. 1A-D are photographs showing EMSA analyses of DNA-binding activities and effects of platinum complexes. Nuclear extracts containing activated Stat1, Stat3 and Stat5 are treated with the indicated concentrations of platinum complex ISSCPA-1, ISSCPA-3, ISSCPA-7, or PtCl4 for 30 min at room temperature prior to incubation with radiolabeled oligonucleotide probes. […] Positions of complexes of DNA with STAT, E2F1 or NFκB (p65, p50) in gel are labeled. Control lanes represent nuclear extracts that are not pre-incubated with platinum complexes.
(§2) Nuclear extracts were prepared from cell lines and used for EMSA as previously described (Turkson et al., 1998; Yu et al., 1995; Garcia et al., 1997). In some cases, cells were pre-treated with platinum complexes for the indicated times prior to harvesting. Where cells were stimulated with EGF (6 ng/ml), duration of treatment was 15 min. Nuclear extracts were pre-incubated with compounds for 30 min at room temperature prior to incubation with radiolabeled probe. The ^32P-radiolabeled oligonucleotide probes used are hSIE (high affinity sis-inducible element, m67 variant, 5′-[…]-3′) (SEQ ID NO:1) that binds both Stat1 and Stat3 (Garcia et al., 1997; Wagner et al., 1990), MGFe (mammary gland factor element from the bovine β-casein gene promoter, 5′-AGATTTCTAGGAATTCAA-3′) (SEQ ID NO:2) that binds Stat1 and Stat5 (Gouilleux et al., 1995; Seidel et al., 1995), the NF-κB binding oligo (5′-[…]-3′) (SEQ ID NO:3), and the oligonucleotide sequence from the DHFR promoter that binds E2F1.
(§3) Platinum compounds were evaluated for inhibitory activity against STAT DNA-binding in vitro.

[2] = test system: Stat5; assay: EMSA, Stat5 DNA-binding activity in vitro (MGFe probe); assay type: biochemical, mouse; conditions: FIG. 1B
Description: as §1, §2, §3

T1 sequence (P42227 2-770 limits assumed): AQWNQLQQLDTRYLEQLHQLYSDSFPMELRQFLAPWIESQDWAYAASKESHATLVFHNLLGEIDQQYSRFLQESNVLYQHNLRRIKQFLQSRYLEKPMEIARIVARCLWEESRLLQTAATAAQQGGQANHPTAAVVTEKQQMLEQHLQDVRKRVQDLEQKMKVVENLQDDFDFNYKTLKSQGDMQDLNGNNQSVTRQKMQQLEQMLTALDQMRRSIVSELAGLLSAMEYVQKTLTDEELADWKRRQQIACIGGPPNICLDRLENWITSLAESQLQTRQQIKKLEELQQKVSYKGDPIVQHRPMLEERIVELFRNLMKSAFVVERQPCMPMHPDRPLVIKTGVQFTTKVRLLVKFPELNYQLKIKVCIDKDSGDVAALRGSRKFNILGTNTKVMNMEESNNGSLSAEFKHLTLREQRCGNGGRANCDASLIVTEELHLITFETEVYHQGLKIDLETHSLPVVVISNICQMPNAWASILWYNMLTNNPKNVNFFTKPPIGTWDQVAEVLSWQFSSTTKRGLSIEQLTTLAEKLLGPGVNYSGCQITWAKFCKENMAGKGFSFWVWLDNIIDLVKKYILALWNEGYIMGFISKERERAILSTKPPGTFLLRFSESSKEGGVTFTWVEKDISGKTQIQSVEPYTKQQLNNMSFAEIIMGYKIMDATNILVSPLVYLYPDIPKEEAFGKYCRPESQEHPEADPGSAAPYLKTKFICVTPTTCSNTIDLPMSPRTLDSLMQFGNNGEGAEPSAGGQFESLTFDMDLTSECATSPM

| Compound | Level of DNA-binding activity of Stat3 (EMSA) [1] | pIC50 [1] | Inhibitory effect on Stat5 DNA-binding activity (EMSA) [2] |
| --- | --- | --- | --- |
| [NH2][Pt]([NH2])([Cl])([Cl])([Cl])[N+](=O)[O-] [ISS CPA-7] | dose-dependent reduction | 5.82 | much reduced inhibitory effect |
| O=[N+]([O-])[Pt]1([Cl])([Cl])([Cl])[NH]CC[NH]1 [ISS CPA-1] | dose-dependent reduction | 5.30 | much reduced inhibitory effect |
